The record followed here is ChEMBL document CHEMBL2203126, “Diazine indole acetic acids as potent, selective, and orally bioavailable antagonists of chemoattractant receptor homologous molecule expressed on Th2 cells (CRTH2) for the treatment of allergic inflammatory diseases” (J Med Chem, 2012).

SMILES strings stand for the structures. In brackets after ≈: the same amount, converted by molar mass. Bounds are passed on as bounds.

The test system of one data set is Eosinophil. Briefly: cells. As to conditions: Homo sapiens, Blood, 10 min.
Data set [1] can be described thus: in vitro. As to conditions: human, plasma.
Description: Plasma protein binding in human
Data set [2] has as its target T1, Prostaglandin D2 receptor 2 (Homo sapiens, UniProt Q9Y5Y4).
T1 sequence (Q9Y5Y4 whole entry): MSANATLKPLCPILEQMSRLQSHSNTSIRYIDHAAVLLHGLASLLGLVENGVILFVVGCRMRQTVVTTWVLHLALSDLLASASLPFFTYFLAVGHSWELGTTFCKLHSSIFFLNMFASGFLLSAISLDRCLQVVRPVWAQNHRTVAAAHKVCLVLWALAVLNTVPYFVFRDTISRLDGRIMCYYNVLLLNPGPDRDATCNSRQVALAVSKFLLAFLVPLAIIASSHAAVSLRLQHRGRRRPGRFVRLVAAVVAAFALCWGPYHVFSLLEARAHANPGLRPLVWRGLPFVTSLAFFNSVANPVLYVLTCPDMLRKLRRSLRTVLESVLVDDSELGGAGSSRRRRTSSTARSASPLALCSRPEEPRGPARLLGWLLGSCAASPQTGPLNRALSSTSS
Briefly: biochemical.
Description: (§1) Displacement of [3H]PGD2 from recombinant human CRTH2 receptor expressed in CHO-K1 cells after 30 min by FRET method

A short description of data set [3]: in vitro. As to conditions: human, Caco-2, pH 6.2.
Description: Apparent permeability in human Caco2 cells at pH 6.2/7.4
Data set [4] in a line: Dissociation constant, pKa of the compound. The format is physicochemical.
For another data set, the species on record is Mus musculus. The data set is described as follows: animal or person. As to conditions: Ear, po, read-out: INH.
A short description of data set [5]: in vivo. As to conditions: rat, po, 10 mg/kg.
Data set [6] can be described thus: in vivo. The settings on record: rat, po, 10 mg/kg. The source holds these as a separate data set.
Data set [7] in a line: in vivo. As to conditions: rat, iv, 2 mg/kg.
Description: Half life in rat at 2 mg/kg, iv
Data set [8] is described as follows: in vivo. As to conditions: rat, iv, 2 mg/kg. The source holds these as a separate data set.
Description: Volume of distribution at steady state in rat at 2 mg/kg, iv
Data set [9] in a line: in vivo. The settings on record: rat, plasma, iv, 2 mg/kg.
Description: Clearance in rat plasma at 2 mg/kg, iv
Data set [10] can be described thus: Half life in mouse at 2 mg/kg, iv. The class given is ADME, organism-based. Details: dose 2 mg/kg, route intravenous. As to conditions: in vivo.
Data set [11] can be described thus: Oral bioavailability in mouse at 10 mg/kg. The format is ADME, organism-based. As to conditions: in vivo.
Data set [12] can be described thus: Volume of distribution at steady state in mouse at 2 mg/kg, iv. The class given is ADME, organism-based. Details: dose 2 mg/kg, route intravenous. As to conditions: in vivo, read-out: Vdss.
Data set [13] in a line: Cmax in mouse at 10 mg/kg, po. The class given is ADME, organism-based. Details: dose 10 mg/kg, route oral. The settings on record: in vivo.
The next data set in a line: physchem. As to conditions: buffer, pH 6.6.
A short description of data set [14]: Clearance in mouse plasma at 2 mg/kg, iv. The format is ADME, organism-based. Details: dose 2 mg/kg, route intravenous.
Data set [15] is described as follows: Half life in mouse liver microsomes. The format is ADME, Microsome.
A short description of data set [16]: Oral bioavailability in mouse. The settings on record: in vivo. The format is ADME, organism-based.
A short description of data set [17]: Clearance in mouse. The format is ADME, organism-based. The settings on record: in vivo.
A short description of data set [18]: Effective permeability across human Caco2 cells. The class given is ADME, cell-based. As to conditions: Caco-2, read-out: Peff.
Another data set relates to Liver microsomes. The data set is described as follows: Metabolic stability in human liver microsomes. The class given is ADME, Microsome.
Data set [19] addresses T1, Prostaglandin D2 receptor 2. As to conditions: cho-k1.
Description: as §1

Description for Eosinophil: Inhibition of eosinophil shape change in human whole blood after 10 mins by flow cytometric assay
Description for physchem: Aqueous solubility of the compound at pH 6.6

In the case of `Cc1c(Cc2ccc(=O)n(Cc3ccncc3)n2)c2cc(F)ccc2n1CC(=O)O`, the IC50 in the data set on Eosinophil worked out at 22 nM; in data set [2], 12 nM. In the data set “in vitro [1]”, this molecule registered a fraction unbound of under 0.02.

`Cc1c(-c2nn(Cc3ccccc3)c(=O)c3ccccc23)c2ccccc2n1CC(N)=O` showed an IC50 in data set [2] of over 1000 nM.

Turning to `Cc1c(Cc2ccc(=O)n(Cc3cc(F)c(F)cc3F)n2)c2cc(F)ccc2n1CC(=O)O`, the IC50 with Eosinophil turned out to be 10 nM; in [2] it was 0.8 nM. In the data set “in vitro [1]”, this molecule yielded a fraction unbound of under 0.02.

For `Cc1c(C2=NN(Cc3ccccc3)C(=O)C3CCCCC23)c2cc(F)ccc2n1CC(=O)O` (centres undefined), the IC50 in [2] stood at 109 nM.

The molecule `Cc1c(-c2ccc(=O)n(Cc3ccccc3)n2)c2cc(F)ccc2n1CC(=O)O` showed a Papp in “in vitro [3]” of 0.5 ×10⁻⁶ cm/s. This molecule returned an IC50 in [2] of 23 nM. Also, the pKa in data set [4] was 4.02.

On to `Cc1c(Cc2ccc(=O)n(Cc3ccccc3)n2)c2ccccc2n1CC(=O)O`, for which, in the data set with Eosinophil, half-maximal inhibition (IC50) required 155 nM. The fraction unbound in “in vitro [1]” was under 0.02.

In turn, `COc1ccc2c(c1)c(-c1ccc(=O)n(Cc3ccccc3)n1)c(C)n2CC(=O)O` yielded an IC50 in data set [2] of 104 nM. This molecule also gave a pKa in data set [4] of 4.07.

Molecule `Cc1c(Cc2ccc(=O)n(Cc3ccc(C(F)(F)F)cc3)n2)c2cc(F)ccc2n1CC(=O)O` showed an IC50 in the data set on Eosinophil of 55 nM. Besides, the fraction unbound in “in vitro [1]” is under 0.02.

Regarding `Cc1c(CC2=NN(Cc3ccccc3)C(=O)CC2)c2cc(F)ccc2n1CC(=O)O`, the IC50 with Eosinophil came out at 4 nM; in data set [2] it was 16 nM. For the same molecule, the inhibition in vivo at 3 mg/kg in the data set listed under Mus musculus was 34%. In the data set “in vivo [5]”, this molecule registered a bioavailability of 28%. The molecule further returned a fraction unbound in the data set “in vitro [1]” of under 0.02. This molecule displayed a Cmax in the data set “in vivo [6]” of 484 ng/mL. The molecule further showed a half-life in “in vivo [7]” of 258 min. Besides, the Vd in “in vivo [8]” is 1.7 L/kg. For the same molecule, in the data set “in vivo [9]”, the clearance was 13 mL/min/kg.

As for `Cc1c(-c2nn(Cc3ccccc3)c(=O)c3ccccc23)c2cc(F)ccc2n1CC(=O)O`, inhibition in [2] was half-maximal at 11 nM (IC50).

Consider `Cc1c(Cc2ccc(=O)n(Cc3ccc(C(C)(C)O)cc3)n2)c2cc(F)ccc2n1CC(=O)O`, for which the IC50 in the data set on Eosinophil was 13 nM; in data set [2], 5 nM. In the data set “in vitro [1]”, this molecule displayed a fraction unbound of under 0.02.

The molecule `Cc1c(Cc2nn(Cc3ccccc3)c(=O)c3ccccc23)c2cc(Cl)ccc2n1CC(=O)O` registered an IC50 in [2] of 29 nM.

In turn, `Cc1c(Cc2ccc(=O)n(Cc3ccc(F)cc3F)n2)c2cc(F)cc(F)c2n1CC(=O)O` displayed an IC50 with Eosinophil of 180 nM. The molecule further registered a fraction unbound in the data set “in vitro [1]” of under 0.02.

In data set [2], `Cc1c(-c2nn(Cc3ccccc3)c(=O)c3ccccc23)c2ccccc2n1CCC(=O)O` registered an IC50 of over 1000 nM.

Consider `Cc1c(Cc2ccc(=O)n(Cc3ccc(F)cc3F)n2)c2ccccc2n1CC(=O)O`, for which the fraction unbound in “in vitro [1]” was under 0.02.

In turn, `Cc1c(-c2ccc(=O)n(Cc3ccccc3)n2)c2cc(S(C)(=O)=O)ccc2n1CC(=O)O` returned an IC50 in data set [2] of 135 nM. Also, the pKa in [4] came to 4.

The molecule `Cc1c(-c2ccc(=O)n(Cc3ccccc3)n2)c2cc(F)cc(Cl)c2n1CC(=O)O` returned an IC50 in data set [2] of 245 nM. Further, the pKa in data set [4] was 3.86.

Regarding `Cc1c(Cc2ccc(=O)n(Cc3ccc(C(O)(C(F)(F)F)C(F)(F)F)cc3)n2)c2cc(F)ccc2n1CC(=O)O`, 57 nM corresponded to half-maximal inhibition in the data set with Eosinophil (IC50). Moreover, in the data set “in vitro [1]”, the fraction unbound was under 0.02.

`Cc1c(Cc2ccc(=O)n(Cc3ccccc3)n2)c2cc(F)ccc2n1CC(=O)O` yielded a Papp in “in vitro [3]” of 4.3 ×10⁻⁶ cm/s. Inhibition in [2] was half-maximal at 9 nM (IC50).

For the molecule `Cc1c(-c2ccc(=O)n(Cc3ccccc3)n2)c2cc(Cl)ccc2n1CC(=O)O`, the IC50 in data set [2] was 28 nM. Moreover, in data set [4], the pKa was 4.03.

On to `Cc1c(CC2=NN(Cc3ccc(F)cc3F)C(=O)CC2)c2cc(F)ccc2n1CC(=O)O`, for which the half-life in [10] is 240 min. The IC50 in the data set with Eosinophil worked out at 8 nM; in data set [2] it was 4 nM. Besides, in [11], the bioavailability stood at 41%. The Vd in data set [12] stood at 1.12 L/kg. The same molecule displayed a fraction unbound in the data set “in vitro [1]” of under 0.02. The Cmax in [13] was determined as 1890 ng/mL. This molecule also showed a solubility in “physchem” of 954 µg/mL (≈ 2150 µM). The molecule also came in with a clearance in data set [14] of 9 mL/min/kg.

`Cc1c(-c2ccc(=O)n(Cc3ccccc3)n2)c2cc(Br)ccc2n1CC(=O)O` returned an IC50 in data set [2] of 16 nM. Further, in data set [4], the pKa came to 4.03.

With `Cc1c(-c2nn(Cc3ccccc3)c(=O)c3ccccc23)c2ccccc2n1CCO`, the IC50 in [2] is over 1000 nM.

On to `Cc1c(-c2ccc(=O)n(Cc3ccccc3)n2)c2cc(Cl)cc(Cl)c2n1CC(=O)O`, for which it took 1690 nM to reach half-maximal inhibition in [2] (IC50). Moreover, in data set [4], the pKa came to 3.88.

In the case of `Cc1c(Cc2ccc(=O)n(Cc3ccncc3F)n2)c2cc(F)ccc2n1CC(=O)O`, the fraction unbound in “in vitro [1]” was under 0.02.

`Cc1c(-c2nn(CCOc3ccc(Cl)cc3)c(=O)c3ccccc23)c2cc(Cl)ccc2n1CC(=O)O` yielded a half-life in data set [15] of 11 min. Further, the bioavailability in data set [16] was under 1%. The same molecule returned a clearance in data set [17] of over 90 mL/min/kg. Besides, in data set [2], the IC50 is 2 nM. Further, the Papp in data set [18] came out at 0.2 ×10⁻⁶ cm/s.

Consider `Cc1c(-c2ccc(=O)n(Cc3ccccc3)n2)c2cc(S(C)(=O)=O)cc(F)c2n1CC(=O)O`, for which the IC50 in data set [2] turned out to be 934 nM. The pKa in [4] worked out at 3.83.

In turn, `Cc1c(-c2nn(Cc3ccccc3)c(=O)c3ccccc23)c2cc(Cl)ccc2n1CC(=O)O` registered an IC50 in [2] of 11 nM.

In turn, `Cc1c(-c2nn(Cc3ccccc3)c(=O)c3ccccc23)c2ccccc2n1C(C)C(=O)O` (centres undefined) registered an IC50 in [2] of over 1000 nM.

Consider `Cc1c(-c2nn(Cc3ccccc3)c(=O)c3ccccc23)c2ccccc2n1CC(=O)N1CCCC1`, for which the IC50 in data set [2] is over 1000 nM.

`Cc1ccc2c(c1)c(-c1ccc(=O)n(Cc3ccccc3)n1)c(C)n2CC(=O)O` gave an IC50 in data set [2] of 34 nM. Also, in data set [4], the pKa came to 4.16.

On to `Cc1c(-c2nn(Cc3ccccc3)c(=O)c3ccccc23)c2ccccc2n1CC(=O)O`, for which it took 16 nM to reach half-maximal inhibition in data set [2] (IC50). This counts as double-digit nanomolar.

In turn, `Cc1c(-c2nn(Cc3ccccc3)c(=O)c3ccccc23)c2ccccc2n1CC(=O)NS(C)(=O)=O` came in with an IC50 in [2] of over 1000 nM.

`Cc1c(-c2nn(Cc3ccccc3)c(=O)c3ccccc23)c2ccccc2n1CC(=O)N(C)C` gave an IC50 in [2] of over 1000 nM.

In turn, `Cc1c(-c2ccc(=O)n(Cc3ccccc3)n2)c2cc(F)cc(S(C)(=O)=O)c2n1CC(=O)O` gave a pKa in data set [4] of 3.83.

The molecule `Cc1c(-c2ccc(=O)n(Cc3ccc(F)cc3F)n2)c2cc(F)ccc2n1CC(=O)O` registered a Papp in “in vitro [3]” of 2.1 ×10⁻⁶ cm/s. In [2], this molecule returned an IC50 of 10 nM.

For `Cc1c(Cc2ccc(=O)n(Cc3ccccc3)n2)c2cc(Cl)ccc2n1CC(=O)O`, the IC50 (with Eosinophil; in data set [2]) was 15 nM throughout. Further, the fraction unbound in the data set “in vitro [1]” was under 0.02.

In the case of `Cc1c(-c2ccc(=O)n(Cc3ccccc3)n2)c2cccc(Br)c2n1CC(=O)O`, the pKa in data set [4] was found to be 3.98.

`Cc1c(-c2ccc(=O)n(Cc3ccccc3)n2)c2ccccc2n1CC(=O)O` returned a half-maximal inhibitory concentration (IC50) in data set [2] of 134 nM. In [4], this molecule came in with a pKa of 4.15.

As for `Cc1c(-c2ccc(=O)n(Cc3ccccc3)n2)c2cc(Cl)cc(F)c2n1CC(=O)O`, the IC50 in data set [2] came to 90 nM. The same molecule registered a pKa in [4] of 3.86.

For the molecule `Cc1c(-c2ccc(=O)n(Cc3ccc(F)cc3)n2)c2cc(F)ccc2n1CC(=O)O`, the Stability result with Liver microsomes is recorded as “Stable”. The molecule further displayed a half-life in [15] of over 30 min. In [16], this molecule came in with a bioavailability of 11%. In [17], this molecule had a clearance of 6.9 mL/min/kg. In data set [19], this molecule gave an IC50 of 20 nM. Also, in [18], the Papp worked out at 0.3 ×10⁻⁶ cm/s.

Molecule `Cc1c(-c2ccc(=O)n(Cc3ccccc3)n2)c2cc(F)cc(F)c2n1CC(=O)O` came in with an IC50 in data set [2] of 76 nM. This molecule also gave a pKa in data set [4] of 3.85.
